Reference: patent publication US20180235993A1 (priority 2000, published 2018)
Where two headings read alike, the source gives them in different places.

Key:
[1] = system: Human bone marrow cells (CFU-GM); test: Human bone marrow toxicity, CFU-GM clonogenic assay; format: cell-based; conditions: Homo sapiens, CFU-GM, read-out: IC50 CFU-GM
Text: (§1) Human bone marrow cells were collected from normal healthy volunteers and the mononuclear population was separated by Ficoll-Hypaque gradient centrifugation as described previously by Sommadossi J-P, Carlisle R. “Toxicity of 3′-azido-3′-deoxythymidine and 9-(1,3-dihydroxy-2-propoxymethyl)guanine for normal human hematopoietic progenitor cells in vitro” Antimicrobial Agents and Chemotherapy 1987; 31:452-454; and Sommadossi J-P, Schinazi R F, Chu C K, Xie M-Y. “Comparison of cytotoxicity of the (−)- and (+)-enantiomer of 2′,3′-dideoxy-3′-thiacytidine in normal human bone marrow progenitor cells” Biochemical Pharmacology 1992; 44:1921-1925. The culture assays for CFU-GM and BFU-E were performed using a bilayer soft agar or methylcellulose method. Drugs were diluted in tissue culture medium and filtered. After 14 to 18 days at 37° C. in a humidified atmosphere of 5% CO2 in air, colonies of greater than 50 cells were counted using an inverted microscope. The results in Table 4 are presented as the percent inhibition of colony formation in the presence of drug compared to solvent control cultures.

[2] = system: Human bone marrow cells (BFU-E); test: Human bone marrow toxicity, BFU-E clonogenic assay; format: cell-based; conditions: Bone marrow cell; human bone marrow colony formation, 14 to 18 days
Text: as §1

[3] = Cytotoxicity assay (sulforhodamine B, CC50), Human Hepatoma; format: cell-based; conditions: human, Huh7 cells (human hepatoma); Table 13; Huh7 cells
Protocol: Cells were seeded at a rate of between 5×10^3 and 5×10^4/well into 96-well plates in growth medium overnight at 37° C. in a humidified CO2 (5%) atmosphere. New growth medium containing serial dilutions of the drugs was then added. After incubation for 4 days, cultures were fixed in 50% TCA and stained with sulforhodamineB. The optical density was read at 550 nm. The cytotoxic concentration was expressed as the concentration required to reduce the cell number by 50% (CC50).

[4] = system: BVDV (strain NADL); test: Cell Protection Assay (CPA); format: cell-based, Bovine Viral Diarrhea virus; conditions: Bovine viral diarrhea virus isolates and strains
Protocol: The assay was performed essentially as described by Baginski, S. G.; Pevear, D. C.; Seipel, M.; Sun, S. C. C.; Benetatos, C. A.; Chunduru, S. K.; Rice, C. M. and M. S. Collett “Mechanism of action of a pestivirus antiviral compound” PNAS USA 2000, 97(14), 7981-7986. MDBK cells (ATCC) were seeded onto 96-well culture plates (4,000 cells per well) 24 hours before use. After infection with BVDV (strain NADL, ATCC) at a multiplicity of infection (MOI) of 0.02 plaque forming units (PFU) per cell, serial dilutions of test compounds were added to both infected and uninfected cells in a final concentration of 0.5% DMSO in growth medium. Each dilution was tested in quadruplicate. Cell densities and virus inocula were adjusted to ensure continuous cell growth throughout the experiment and to achieve more than 90% virus-induced cell destruction in the untreated controls after four days post-infection. After four days, plates were fixed with 50% TCA and stained with sulforhodamine B. The optical density of the wells was read in a microplate reader at 550 nm. The 50% effective concentration (EC50) values were defined as the compound concentration that achieved 50% reduction of cytopathic effect of the virus. FIGS. 4 and 5 provide a graphical illustration of the methodology used to arrive at the 50% effective concentration (EC50) values for β-D-2′-CH3-riboG and ribavirin. FIG. 6 compares the results of the CPA for β-D-2′-CH3-riboG, β-D-2′-CH3-riboC, riboU, β-D-2′-CH3-riboA and ribavirin

[5] = system: BVDV; test: Plaque Reduction Assay; format: cell-based, Bovine Viral Diarrhea virus; conditions: Bovine viral diarrhea virus isolates and strains
Protocol: For each compound the effective concentration was determined in duplicate 24-well plates by plaque reduction assays. Cell monolayers were infected with 100 PFU/well of virus. Then, serial dilutions of test compounds in MEM supplemented with 2% inactivated serum and 0.75% of methyl cellulose were added to the monolayers. Cultures were further incubated at 37° C. for 3 days, then fixed with 50% ethanol and 0.8% Crystal Violet, washed and air-dried. FIG. 7 is a graphical illustration of the results from the Plaque Reduction Assay. FIG. 8 is an image of BVDV plaque formation in the presence of increasing concentrations of β-D-2′-CH3-riboU.

[6] = system: BVDV (NADL strain); test: Yield Reduction Assay; format: cell-based, Bovine Viral Diarrhea virus
Protocol: The assay was performed as described by Baginski, S. G.; Pevear, D. C.; Seipel, M.; Sun, S. C. C.; Benetatos, C. A.; Chunduru, S. K.; Rice, C. M. and M. S. Collett “Mechanism of action of a pestivirus antiviral compound” PNAS USA 2000, 97(14), 7981-7986, with minor modifications. Briefly, MDBK cells were seeded onto 24-well plates (2×10^5 cells per well) 24 hours before infection with BVDV (NADL strain) at a multiplicity of infection (MOI) of 0.1 PFU per cell. Serial dilutions of test compounds were added to cells in a final concentration of 0.5% DMSO in growth medium. Each dilution was tested in triplicate. After three days, cell cultures (cell monolayers and supernatants) were lysed by three freeze-thaw cycles, and virus yield was quantified by plaque assay. Briefly, MDBK cells were seeded onto 6-well plates (5×10^5 cells per well) 24 h before use. Cells were inoculated with 0.2 mL of test lysates for 1 hour, washed and overlaid with 0.5% agarose in growth medium. After 3 days, cell monolayers were fixed with 3.5% formaldehyde and stained with 1% crystal violet (w/v in 50% ethanol) to visualize plaques. FIG. 9 is a graphical illustration of the results from the Yield Reduction Assay. FIG. 8 is an image of BVDV yield reduction in the presence of increasing concentrations of β-D-2′-CH3-riboC.

[7] = system: Bovine Viral Diarrhea virus (BVDV); test: microbe, parasite or virus in culture; format: cell-based; conditions: Bovine viral diarrhea virus isolates and strains, read-out: BVDV EC50
[8] = system: YFV-17D; test: microbe, parasite or virus in culture; format: cell-based, Yellow fever virus vaccine strain 17D; conditions: Yellow fever virus, read-out: YFV EC50
[9] = in vitro; conditions: cattle
[10] = in vitro

Question: Which IC50 [1] does the source give for `CC1(O)[C@@H](O)[C@@H](CO)O[C@H]1n1cnc2c(=O)[nH]c(N)nc21` (stereo partly drawn) [β-D-2′-CH3-riboG] here?
Answer: > 10 µM

Question: And the IC50 [2]?
Answer: > 100 µM

Question: And the EC50 at 4 days [3]?
Answer: > 250 µM

Question: What about the EC50 ([4]; 96 h, MDBK cells infected with BVDV, 50% reduction of cytopathic effect, four days, read-out: EC50) of the same compound?
Answer: 4 µM

Question: And the EC50 ([4]; Table 13, BVDV, read-out: Cell Protection (EC50))?
Answer: 4 µM

Question: And the EC90 ([5]; 72 h, concentration to obtain 90% virus suppression, 3 days, read-out: EC90)?
Answer: < 9 µM

Question: What about the EC90 ([5]; Table 13, BVDV, 90% virus suppression, read-out: Plaque Reduction (EC90)) of the same compound?
Answer: < 9 µM

Question: What about the “Conc. for 6-log Reduction” value [6] of the same compound?
Answer: 20 μM

Question: What about the “Yield Reduction 6 log10 reduction (μM)” value [6] of the same compound?
Answer: 20 μM

Question: And the “reduction in yield reduction assay” value [6]?
Answer: 4 log

Question: What about the EC90 ([6]; Bovine viral diarrhea virus isolates and strains, Table 13, BVDV) of the same compound?
Answer: 3 µM

Question: What about the EC50 [7] of the same compound?
Answer: 2 µM

Question: And the EC50 [8]?
Answer: 1.2 µM

Question: And the CC50 [9]?
Answer: 100 µM

Question: And the CC50 ([10]; cattle (Bos taurus))?
Answer: > 100 µM

Question: What about the CC50 at 4 days ([10]; hamster) of the same compound?
Answer: 20 µM
